Read-outs that look alike come from different tables or passages of the source.
Legend:
[1] = test system: Chlorella sp. HS26
Protocol: Cultures of Chlorella sp. […] 100 mL volume cultures were prepared in 250 mL flasks, and cultured at a pH of 7.5, temperature of 25° C., a shaking frequency of 100 rpm, and a light intensity of 100 μM photon/m^2 s for 7 days (168 hours).

[2] = test system: Chlorella sp. HS26; conditions: for Cell Dry Weight of Chlorella: 2.4 g/L
Protocol: This experiment was conducted to determine the effect of different culture medium pH levels on the growth of Chlorella sp. HS26 at a constant culture medium acetate concentration. Duplicate 100 ml flasks of axenic cultures of Chlorella were adjusted to initial pH levels of 2.5, 3.5, 4.5, 5.5, 6.5, 7.0, 7.5, 8.5, 9.5, and 10.5. The culture pH was adjusted using either hydrochloric acid (HCl) or sodium hydroxide (NaOH). […] Samples of the flask culture were taken initially and every other day over a six day period (144 hours).

[3] = test system: Aurantiochytrium sp. HS399
Protocol: Cultures of Aurantiochytrium sp. […] 100 mL volume cultures were prepared in 250 mL flasks, and cultured at a pH of 7.0, temperature of 27° C., a shaking frequency of 180 rpm, in the dark for 5 days (120 hours). The cultures were inoculated at the same cell density.

[4] = test system: Aurantiochytrium sp. HS399; conditions: for Cell Dry Weight of Aurantiochytrium: 2 g/L Na Acetate
Protocol: This experiment was conducted to determine the effect of different culture pH levels on the growth of Aurantiochytrium sp. HS399. Duplicate 100 ml flasks of axenic cultures of Aurantiochytrium were adjusted to initial pH levels of 4, 5, 6, 7, and 8. The culture pH was adjusted using either hydrochloric acid (HCl) or potassium hydroxide (KOH). […] Samples of the flask culture were taken initially and every other day over a five-day period (120 hours).

## CC(=O)[O-].[Na+] [Sodium Acetate, sodium acetate]
[1]; 2.5 g/L sodium acetate
  growth: 0.620 g/L day
  time to reach exponential phase: 48 h
[1]; 5 g/L sodium acetate
  growth: 0.065 g/L day
[1]; sodium acetate 2.5 g/L, 0 h
  Chlorella dry weights: 0.12 g/L
[1]; sodium acetate 2.5 g/L, 24 h
  Chlorella dry weights: 0.23 g/L
[1]; sodium acetate 2.5 g/L, 48 h
  Chlorella dry weights: 0.85 g/L
[1]; sodium acetate 2.5 g/L, 72 h
  Chlorella dry weights: 1.10 g/L
[1]; sodium acetate 2.5 g/L, 144 h
  Chlorella dry weights: 2.72 g/L
[1]; sodium acetate 2.5 g/L, 168 h
  Chlorella dry weights: 3.23 g/L
[1]; sodium acetate 5 g/L, 0 h
  Chlorella dry weights: 0.12 g/L
[1]; sodium acetate 5 g/L, 24 h
  Chlorella dry weights: 0.19 g/L
[1]; sodium acetate 5 g/L, 48 h
  Chlorella dry weights: 0.25 g/L
[1]; sodium acetate 5 g/L, 72 h
  Chlorella dry weights: 0.55 g/L
[1]; sodium acetate 5 g/L, 144 h
  Chlorella dry weights: 1.89 g/L
[1]; sodium acetate 5 g/L, 168 h
  Chlorella dry weights: 2.41 g/L
[1]; sodium acetate 10 g/L, 0 h
  Chlorella dry weights: 0.12 g/L
[1]; sodium acetate 10 g/L, 24 h
  Chlorella dry weights: 0.13 g/L
[1]; sodium acetate 10 g/L, 48 h
  Chlorella dry weights: 0.16 g/L
[1]; sodium acetate 10 g/L, 72 h
  Chlorella dry weights: 0.11 g/L
[1]; sodium acetate 10 g/L, 144 h
  Chlorella dry weights: 0.09 g/L
[1]; sodium acetate 10 g/L, 168 h
  Chlorella dry weights: 0.00 g/L
[1]; sodium acetate 20 g/L, 0 h
  Chlorella dry weights: 0.12 g/L
[1]; sodium acetate 20 g/L, 24 h
  Chlorella dry weights: 0.16 g/L
[1]; sodium acetate 20 g/L, 48 h
  Chlorella dry weights: 0.13 g/L
[1]; sodium acetate 20 g/L, 72 h
  Chlorella dry weights: 0.12 g/L
[1]; sodium acetate 20 g/L, 144 h
  Chlorella dry weights: 0.07 g/L
[1]; sodium acetate 20 g/L, 168 h
  Chlorella dry weights: 0.00 g/L
[1]; sodium acetate 30 g/L, 0 h
  Chlorella dry weights: 0.12 g/L
[1]; sodium acetate 30 g/L, 24 h
  Chlorella dry weights: 0.14 g/L
[1]; sodium acetate 30 g/L, 48 h
  Chlorella dry weights: 0.11 g/L
[1]; sodium acetate 30 g/L, 72 h
  Chlorella dry weights: 0.09 g/L
[1]; sodium acetate 30 g/L, 144 h
  Chlorella dry weights: 0.08 g/L
[1]; sodium acetate 30 g/L, 168 h
  Chlorella dry weights: 0.00 g/L
[1]; sodium acetate 40 g/L, 0 h
  Chlorella dry weights: 0.12 g/L
[1]; sodium acetate 40 g/L, 24 h
  Chlorella dry weights: 0.11 g/L
[1]; sodium acetate 40 g/L, 48 h
  Chlorella dry weights: 0.09 g/L
[1]; sodium acetate 40 g/L, 72 h
  Chlorella dry weights: 0.10 g/L
[1]; sodium acetate 40 g/L, 144 h
  Chlorella dry weights: 0.09 g/L
[1]; sodium acetate 40 g/L, 168 h
  Chlorella dry weights: 0.00 g/L
[1]; sodium acetate in the culture, pH 7.5
  acetate concentration tolerance: approximately 7.5 g/L
[2]; 2.4 g/L sodium acetate, pH of 5.5 or lower
  cell dry weight over time: did not increase over time
[2]; initial pH 2.5, 0 h
  Cell Dry Weight of Chlorella: 0.6 g/L
[2]; initial pH 2.5, 24 h
  Cell Dry Weight of Chlorella: 0.5 g/L
[2]; initial pH 2.5, 48 h
  Cell Dry Weight of Chlorella: 0.5 g/L
[2]; initial pH 3.5, 0 h
  Cell Dry Weight of Chlorella: 0.6 g/L
[2]; initial pH 3.5, 24 h
  Cell Dry Weight of Chlorella: 0.5 g/L
[2]; initial pH 3.5, 48 h
  Cell Dry Weight of Chlorella: 0.5 g/L
[2]; initial pH 4.5, 0 h
  Cell Dry Weight of Chlorella: 0.6 g/L
[2]; initial pH 4.5, 24 h
  Cell Dry Weight of Chlorella: 0.5 g/L
[2]; initial pH 4.5, 48 h
  Cell Dry Weight of Chlorella: 0.4 g/L
[2]; initial pH 5.5, 0 h
  Cell Dry Weight of Chlorella: 0.6 g/L
[2]; initial pH 5.5, 24 h
  Cell Dry Weight of Chlorella: 0.6 g/L
[2]; initial pH 5.5, 48 h
  Cell Dry Weight of Chlorella: 0.6 g/L
[2]; initial pH 5.5, 96 h
  Cell Dry Weight of Chlorella: 0.4 g/L
[2]; initial pH 6.5, 0 h
  Cell Dry Weight of Chlorella: 0.6 g/L
[2]; initial pH 6.5, 24 h
  Cell Dry Weight of Chlorella: 0.8 g/L
[2]; initial pH 6.5, 48 h
  Cell Dry Weight of Chlorella: 1.8 g/L
[2]; initial pH 6.5, 96 h
  Cell Dry Weight of Chlorella: 4.3 g/L
[2]; initial pH 6.5, 144 h
  Cell Dry Weight of Chlorella: 6.0 g/L
[2]; initial pH 7.5, 0 h
  Cell Dry Weight of Chlorella: 0.6 g/L
[2]; initial pH 7.5, 24 h
  Cell Dry Weight of Chlorella: 0.6 g/L
[2]; initial pH 7.5, 48 h
  Cell Dry Weight of Chlorella: 1.7 g/L
[2]; initial pH 7.5, 96 h
  Cell Dry Weight of Chlorella: 4.4 g/L
[2]; initial pH 7.5, 144 h
  Cell Dry Weight of Chlorella: 6.0 g/L
[2]; initial pH 8.5, 0 h
  Cell Dry Weight of Chlorella: 0.6 g/L
[2]; initial pH 8.5, 24 h
  Cell Dry Weight of Chlorella: 0.8 g/L
[2]; initial pH 8.5, 48 h
  Cell Dry Weight of Chlorella: 2.4 g/L
[2]; initial pH 8.5, 96 h
  Cell Dry Weight of Chlorella: 4.2 g/L
[2]; initial pH 8.5, 144 h
  Cell Dry Weight of Chlorella: 6.0 g/L
[2]; initial pH 9.5, 0 h
  Cell Dry Weight of Chlorella: 0.6 g/L
[2]; initial pH 9.5, 24 h
  Cell Dry Weight of Chlorella: 0.8 g/L
[2]; initial pH 9.5, 48 h
  Cell Dry Weight of Chlorella: 1.2 g/L
[2]; initial pH 9.5, 96 h
  Cell Dry Weight of Chlorella: 4.3 g/L
[2]; initial pH 9.5, 144 h
  Cell Dry Weight of Chlorella: 6.1 g/L
[2]; initial pH 10.5, 0 h
  Cell Dry Weight of Chlorella: 0.6 g/L
[2]; initial pH 10.5, 24 h
  Cell Dry Weight of Chlorella: 0.9 g/L
[2]; initial pH 10.5, 48 h
  Cell Dry Weight of Chlorella: 1.4 g/L
[2]; initial pH 10.5, 96 h
  Cell Dry Weight of Chlorella: 4.3 g/L
[2]; initial pH 10.5, 144 h
  Cell Dry Weight of Chlorella: 6.1 g/L
[3]; concentrations of sodium acetate below 100 g/L
  growth: grew well
[3]; sodium acetate 5 g/L, 0 h
  Cell Dry Weight of Aurantiochytrium: 2.7 g/L
[3]; sodium acetate 5 g/L, 24 h
  Cell Dry Weight of Aurantiochytrium: 8.01 g/L
[3]; sodium acetate 5 g/L, 40 h
  Cell Dry Weight of Aurantiochytrium: 8.13 g/L
[3]; sodium acetate 5 g/L, 72 h
  Cell Dry Weight of Aurantiochytrium: 7.49 g/L
[3]; sodium acetate 5 g/L, 96 h
  Cell Dry Weight of Aurantiochytrium: 7.38 g/L
[3]; sodium acetate 5 g/L, 120 h
  Cell Dry Weight of Aurantiochytrium: 7.6 g/L
[3]; sodium acetate 10 g/L, 0 h
  Cell Dry Weight of Aurantiochytrium: 2.7 g/L
[3]; sodium acetate 10 g/L, 24 h
  Cell Dry Weight of Aurantiochytrium: 8.29 g/L
[3]; sodium acetate 10 g/L, 40 h
  Cell Dry Weight of Aurantiochytrium: 9.69 g/L
[3]; sodium acetate 10 g/L, 72 h
  Cell Dry Weight of Aurantiochytrium: 10.35 g/L
[3]; sodium acetate 10 g/L, 96 h
  Cell Dry Weight of Aurantiochytrium: 10 g/L
[3]; sodium acetate 10 g/L, 120 h
  Cell Dry Weight of Aurantiochytrium: 10.9 g/L
[3]; sodium acetate 20 g/L, 0 h
  Cell Dry Weight of Aurantiochytrium: 2.7 g/L
[3]; sodium acetate 20 g/L, 24 h
  Cell Dry Weight of Aurantiochytrium: 7.35 g/L
[3]; sodium acetate 20 g/L, 40 h
  Cell Dry Weight of Aurantiochytrium: 10.45 g/L
[3]; sodium acetate 20 g/L, 72 h
  Cell Dry Weight of Aurantiochytrium: 13.7 g/L
[3]; sodium acetate 20 g/L, 96 h
  Cell Dry Weight of Aurantiochytrium: 13.11 g/L
[3]; sodium acetate 20 g/L, 120 h
  Cell Dry Weight of Aurantiochytrium: 13.55 g/L
[3]; sodium acetate 40 g/L, 0 h
  Cell Dry Weight of Aurantiochytrium: 2.7 g/L
[3]; sodium acetate 40 g/L, 24 h
  Cell Dry Weight of Aurantiochytrium: 7.06 g/L
[3]; sodium acetate 40 g/L, 40 h
  Cell Dry Weight of Aurantiochytrium: 11.84 g/L
[3]; sodium acetate 40 g/L, 72 h
  Cell Dry Weight of Aurantiochytrium: 15.78 g/L
[3]; sodium acetate 40 g/L, 96 h
  Cell Dry Weight of Aurantiochytrium: 18.9 g/L
[3]; sodium acetate 40 g/L, 120 h
  Cell Dry Weight of Aurantiochytrium: 19.65 g/L
[3]; sodium acetate 100 g/L, 0 h
  Cell Dry Weight of Aurantiochytrium: 2.7 g/L
[3]; sodium acetate 100 g/L, 24 h
  Cell Dry Weight of Aurantiochytrium: 1.7 g/L
[3]; sodium acetate 100 g/L, 40 h
  Cell Dry Weight of Aurantiochytrium: 0.7 g/L
[3]; sodium acetate in the culture, pH 7.0
  acetate concentration tolerance: around 100 g/L
[4]; pH 4, 0 h
  Cell Dry Weight of Aurantiochytrium: 0.28 g/L
[4]; pH 4, 24 h
  Cell Dry Weight of Aurantiochytrium: 1.1 g/L
[4]; pH 4, 48 h
  Cell Dry Weight of Aurantiochytrium: 0.79 g/L
[4]; pH 4, 72 h
  Cell Dry Weight of Aurantiochytrium: 0.51 g/L
[4]; pH 5, 0 h
  Cell Dry Weight of Aurantiochytrium: 0.25 g/L
[4]; pH 5, 24 h
  Cell Dry Weight of Aurantiochytrium: 5.15 + g/L
[4]; pH 5, 48 h
  Cell Dry Weight of Aurantiochytrium: 15.2 g/L
[4]; pH 5, 72 h
  Cell Dry Weight of Aurantiochytrium: 19.4 g/L
[4]; pH 6, 0 h
  Cell Dry Weight of Aurantiochytrium: 0.18 g/L
[4]; pH 6, 24 h
  Cell Dry Weight of Aurantiochytrium: 5.1 g/L
[4]; pH 6, 48 h
  Cell Dry Weight of Aurantiochytrium: 11.55 g/L
[4]; pH 6, 72 h
  Cell Dry Weight of Aurantiochytrium: 16 g/L
[4]; pH 7, 0 h
  Cell Dry Weight of Aurantiochytrium: 0.3 g/L
[4]; pH 7, 24 h
  Cell Dry Weight of Aurantiochytrium: 12.25 g/L
[4]; pH 7, 48 h
  Cell Dry Weight of Aurantiochytrium: 10.8 g/L
[4]; pH 7, 72 h
  Cell Dry Weight of Aurantiochytrium: 15.7 g/L
[4]; pH 8, 0 h
  Cell Dry Weight of Aurantiochytrium: 0.25 g/L
[4]; pH 8, 24 h
  Cell Dry Weight of Aurantiochytrium: 9.1 g/L
[4]; pH 8, 48 h
  Cell Dry Weight of Aurantiochytrium: 8.95 g/L
[4]; pH 8, 72 h
  Cell Dry Weight of Aurantiochytrium: 12.6 g/L
[4]; 2 g/L sodium acetate, pH of 4
  cell dry weight over time: did not increase over time

From patent US20210284952A1, “METHODS OF APPLYING ACETATE TOXICITY AND INDUCING ACETATE UPTAKE IN MICROALGAE CULTURES” (HELIAE DEVELOPMENT LLC, priority 2016, published 2021)
